According to US4600721A, “Pharmaceutical preparation” (Ludwig Heumann & Co., GmbH, priority 1984, dated 1986):

Key:
[1] = tested on: lipoxygenase and cyclooxygenase; conditions: known inhibitors, statement in words; cited from earlier work
[2] = tested on: Acute inflammatory oedema of the paws; assay: Rat paw oedema test (carrageenin); format: in vivo; conditions: po, i.g., 1 hour after carrageenin injection, inhibition of increase in paw volume, male rats
Protocol: Acute inflammatory oedema of the paws was induced in male rats (100-120 g) by subplantar injection of 0.1 ml of 2% carrageenin (dissolved in aqueous 0.9% NaCl solution). The volume of the paws was measured with a paw volume measuring instrument 1 hour and 4 hours after the carrageenin injection. The differences in paw volume between the two measurements was calculated. The test substances were suspended in 1% tylose and administered intragastrally through a stomach tube one hour after the carrageenin injection.
The controls were given vehicle alone (1% tylose). The percentage inhibition of increase in volume in the treated animals was obtained from a comparison with the untreated controls. The average inhibitory doses (ED50) were calculated on the basis of the regression graphs.

leucocyte migration = assay: Leucocyte migration test (carrageenin-soaked polyester sponges); format: in vivo, rat; conditions: male rats, 24 hours
Protocol: Polyester sponges soaked in 2% carrageenin solution were implanted subcutaneously in the neck region of male rats (140-150 g) (see G. A. Higgs et al, Eur. J. Pharmacol. 66, 81 (1980), A. W. Ford-Hutchinson et al, J.Pharmacol. Methods 1, 3 (1978)). The sponges were removed after 24 hours. The leucocytes which had migrated in were washed out with a PBS solution (pH 7.4, 0.5% trypsin, 10 units/ml of heparin) for 30 minutes at 37° C. The sponges were then carefully squeezed and centrifuged (15 minutes, 500 revs/min). The leucocytes in the washing liquid were then counted. The test substances which had been taken up in 1% tylose and the vehicle (1% tylose) were administered intragastrally with a stomach tube immediately after implantation of the sponge and then after 5 hours and after 21 hours. The percentage inhibition of leucocyte migration after administration of the test substances was determined by comparison with the controls. The average inhibitory doses (ED50) were calculated from the regression graphs.

[3] = tested on: LTC 4 synthesis and release; assay: Inhibition of LTC 4 synthesis and release in vitro; format: cell-based
[4] = tested on: PGE 2 synthesis and release; assay: Inhibition of PGE 2 synthesis and release in vitro; format: cell-based

| Compound | selective inhibitory action on lipoxygenase or inhibition of both lipoxygenase and cyclooxygenase [1] | ED50 [2] | Inhibition of leucocyte migration (control = 0%) (leucocyte migration; 40 mg/kg i.g.) | LTC 4 (% of controls) ([3]; at 10^-5) | LTC 4 (% of controls) ([3]; at 10^-6) | PGE 2 (% of controls) ([4]; at 10^-4) | PGE 2 (% of controls) ([4]; at 10^-5) | PGE 2 (% of controls) ([4]; at 10^-6) | Inhibition of leucocyte migration (control = 0%) (leucocyte migration; 50 mg/kg i.g.) | LTC 4 (% of controls) ([3]; at 10^-4) |
| --- | --- | --- | --- | --- | --- | --- | --- | --- | --- | --- |
| CC(C(=O)O)c1ccc2oc(-c3ccc(Cl)cc3)nc2c1 (centres unmarked) [Benoxaprofene] | known inhibitors of this kind | – | – | – | – | – | – | – | – | – |
| CC=NNc1nc2ccccc2s1 [Example 1, N-(benzothiazol-2-yl)-acetaldehyde hydrazone] | – | 15 mg/kg | 50% | > 100 % of controls | > 100 % of controls | 12 % of controls | 38 % of controls | 89 % of controls | – | – |
| CC(C)=NNc1nc2ccccc2s1 [Example 2, N-(benzothiazol-2-yl)-acetone hydrazone] | – | 10 mg/kg | – | 41 % of controls | 89 % of controls | 20 % of controls | 43 % of controls | 103 % of controls | 34% | 16 % of controls |
| CCC=NNc1nc2ccccc2s1 [Example 3, N-(benzothiazol-2-yl)-propionaldehyde hydrazone] | – | 20 mg/kg | – | > 100 % of controls | > 100 % of controls | 8 % of controls | 37 % of controls | 61 % of controls | – | 24 % of controls |
| CCC(C)=NNc1nc2ccccc2s1 [Example 4, N-(benzothiazol-2-yl)-methyl ethyl ketone hydrazone] | – | 10 mg/kg | – | – | – | – | – | – | – | – |
| CC=NNc1nc2ccccc2o1 [Example 5, N-(benzoxazol-2-yl)-acetaldehyde hydrazone] | – | 20 mg/kg | – | – | – | – | – | – | – | – |
| CC(C)=NNc1nc2ccccc2o1 [Example 6, N-(benzoxazol-2-yl)-acetone hydrazone] | – | 10 mg/kg | – | – | – | – | – | – | – | – |
| CCC=NNc1nc2ccccc2o1 [Example 7, N-(benzoxazol-2-yl)-propionaldehyde hydrazone] | – | 20 mg/kg | – | – | – | – | – | – | – | – |
| O=CNNc1nc2ccccc2s1 [Example 8, benzothiazol-2-one-(β-formyl hydrazone)] | – | 14 mg/kg | – | 70 % of controls | > 100 % of controls | 82 % of controls | 112 % of controls | 105 % of controls | 67% | 11 % of controls |
